Measured values from the supplement of paper PMC10307832.

Assays:
Test in all cases: relative viability (nuclei count vs DMSO), 5 days (fraction); higher = more cells survive
Dasatinib + Vorinostat = compound: Cc1nc(Nc2ncc(C(=O)Nc3c(C)cccc3Cl)s2)cc(N2CCN(CCO)CC2)n1 [Dasatinib] + O=C(CCCCCCC(=O)Nc1ccccc1)NO [Vorinostat] (partner 1 µM)
Method in brief: (§1)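 Values are medians from duplicate plates. Each reflects relative viability, defined as the nuclei count of treated wells over that of vehicle wells. Lung cancer cell lines in 1536-well plates were pin-tool dosed one day after seeding with one drug alone or with a fixed anchor-drug dose plus five library-drug doses (not always all listed) in √10 steps, then fixed, stained and imaged at 4× after 5 days.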

XMD13-2 + Luminespib = compound: C1CC1C(=O)NC2=NNC3=C2C=CC(=C3)C4=CC(=CC=C4)C(=O)NC5CC5 [XMD13-2] + CCNC(=O)c1noc(-c2cc(C(C)C)c(O)cc2O)c1-c1ccc(CN2CCOCC2)cc1 [Luminespib] (partner 0.01 µM)
Method in brief: as §1

ALW-II-49-7 + Bortezomib = compound: Cc1ccc(C(=O)Nc2cccc(C(F)(F)F)c2)cc1Nc1cncc(C(N)=O)c1 [ALW-II-49-7] + CC(C)C[C@H](NC(=O)[C@H](Cc1ccccc1)NC(=O)c1cnccn1)B(O)O [Bortezomib] (partner 0.002 µM)
Method in brief: as §1

ALW-II-49-7 + Luminespib = compound: Cc1ccc(C(=O)Nc2cccc(C(F)(F)F)c2)cc1Nc1cncc(C(N)=O)c1 [ALW-II-49-7] + CCNC(=O)c1noc(-c2cc(C(C)C)c(O)cc2O)c1-c1ccc(CN2CCOCC2)cc1 [Luminespib] (partner 0.01 µM)
Method in brief: as §1

Cell Line	relative viability (Dasatinib + Vorinostat; first compound 0.005 µM)	relative viability (Dasatinib + Vorinostat; first compound 0.01581 µM)	relative viability (Dasatinib + Vorinostat; first compound 0.05 µM)	relative viability (Dasatinib + Vorinostat; first compound 0.1581 µM)	relative viability (Dasatinib + Vorinostat; first compound 0.5 µM)	relative viability (XMD13-2 + Luminespib; first compound 0.05 µM)	relative viability (XMD13-2 + Luminespib; first compound 0.1581 µM)	relative viability (XMD13-2 + Luminespib; first compound 0.5 µM)	relative viability (XMD13-2 + Luminespib; first compound 1.581 µM)	relative viability (XMD13-2 + Luminespib; first compound 5 µM)	relative viability (ALW-II-49-7 + Bortezomib; first compound 0.08 µM)	relative viability (ALW-II-49-7 + Bortezomib; first compound 0.253 µM)	relative viability (ALW-II-49-7 + Bortezomib; first compound 0.8 µM)	relative viability (ALW-II-49-7 + Bortezomib; first compound 8 µM)	relative viability (ALW-II-49-7 + Luminespib; first compound 0.08 µM)	relative viability (ALW-II-49-7 + Luminespib; first compound 0.253 µM)	relative viability (ALW-II-49-7 + Luminespib; first compound 0.8 µM)	relative viability (ALW-II-49-7 + Luminespib; first compound 2.53 µM)	relative viability (ALW-II-49-7 + Luminespib; first compound 8 µM)	relative viability (ALW-II-49-7 + Bortezomib; first compound 2.53 µM)
LCLC-97TM1	0.91	0.829	0.905	0.523	0.35	0.883	0.743	0.811	0.667	0.677	0.354	0.677	0.651	0.218	0.772	0.689	0.807	0.869	0.656	–
LCLC-103H	0.852	0.787	0.694	0.582	0.293	0.958	0.943	0.998	1.07	0.739	1.03	0.859	1.1	0.962	0.852	1.01	1.03	0.854	1.03	0.9
LK-2	0.314	0.288	0.21	0.19	0.148	0.181	0.17	0.179	0.205	0.172	–	–	–	–	–	0.184	0.174	0.205	0.185	–
NCI-H358	0.513	0.47	0.388	0.15	0.128	0.487	0.202	0.418	0.196	0.321	–	–	–	–	0.272	0.318	0.244	0.322	0.245	–
NCI-H522	1.03	0.822	0.962	0.788	0.84	1.02	1.41	1.18	1.13	1.06	–	–	–	–	1.41	1.05	1.08	1.15	1.18	–
